Consider six molecules from PMC6420870 (Neuropharmacology, 2019).

What all share (format): cell-based
The target of assay [1] is T1, rat mGlu5 (HEK293A-rat mGlu5-low) (Rattus norvegicus, UniProt P31424). Description: IP1 accumulation.
In assay [2] the target is T1, rat mGlu5 (HEK293A-rat mGlu5-low). Nature of the assay: [3H]methoxy-PEPy inhibition binding, intact adherent cells.
Assay [3] shares this target. Nature of the assay: radioligand binding, intact adherent cells. The conditions noted are these: labelled compound, ~2 nM, RT, 1 h, pH 7.4; allosteric site.

T1 sequence (P31424 21-1203): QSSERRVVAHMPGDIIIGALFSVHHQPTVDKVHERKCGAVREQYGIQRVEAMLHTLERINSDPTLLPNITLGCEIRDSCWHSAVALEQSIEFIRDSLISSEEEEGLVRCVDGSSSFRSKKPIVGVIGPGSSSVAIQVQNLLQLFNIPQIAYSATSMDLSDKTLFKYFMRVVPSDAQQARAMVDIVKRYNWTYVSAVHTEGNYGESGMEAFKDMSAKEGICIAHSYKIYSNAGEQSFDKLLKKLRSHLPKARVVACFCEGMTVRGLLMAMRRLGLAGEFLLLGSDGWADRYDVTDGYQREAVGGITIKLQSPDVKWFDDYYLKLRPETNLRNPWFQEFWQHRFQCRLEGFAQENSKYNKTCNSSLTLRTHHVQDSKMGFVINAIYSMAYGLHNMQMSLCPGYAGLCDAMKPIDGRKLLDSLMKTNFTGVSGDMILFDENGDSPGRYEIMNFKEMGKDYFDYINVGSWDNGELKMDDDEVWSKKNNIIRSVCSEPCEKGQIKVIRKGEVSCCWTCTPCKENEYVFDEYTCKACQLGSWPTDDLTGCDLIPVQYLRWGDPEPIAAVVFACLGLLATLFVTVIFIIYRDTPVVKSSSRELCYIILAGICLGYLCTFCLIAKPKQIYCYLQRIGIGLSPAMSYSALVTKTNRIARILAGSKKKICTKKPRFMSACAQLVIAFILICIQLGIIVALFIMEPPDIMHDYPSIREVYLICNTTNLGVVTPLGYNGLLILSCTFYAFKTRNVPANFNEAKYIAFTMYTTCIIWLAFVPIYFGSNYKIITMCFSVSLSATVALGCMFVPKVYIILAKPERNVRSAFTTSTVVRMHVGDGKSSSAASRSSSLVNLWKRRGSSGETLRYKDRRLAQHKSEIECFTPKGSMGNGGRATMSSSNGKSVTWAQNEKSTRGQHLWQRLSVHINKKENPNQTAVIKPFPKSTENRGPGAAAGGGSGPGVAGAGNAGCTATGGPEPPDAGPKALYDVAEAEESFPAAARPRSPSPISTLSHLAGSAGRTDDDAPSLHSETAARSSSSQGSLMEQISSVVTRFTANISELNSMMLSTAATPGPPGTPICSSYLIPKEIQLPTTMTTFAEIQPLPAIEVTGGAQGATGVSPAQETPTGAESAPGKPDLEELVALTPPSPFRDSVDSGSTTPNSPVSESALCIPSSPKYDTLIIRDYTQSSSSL

Take `CN1CC(=O)N=C1NC(=O)Nc1cccc(Cl)c1` [fenobam, 1-(3-chlorophenyl)-3-[(2e)-1-methyl-4-oxoimidazolidin-2-ylidene]urea]: the IC50 in assay [1] was 148 nM. In addition, affinity in assay [2] was put at a Ki of 70.8 nM. In the case of `COc1cncc(C#Cc2ccccn2)c1` [[^3H]methoxy-PEPy], in assay [3], the “radioligand binding, intact adherent cells” value is “inhibition of [^3H]methoxy-PEPy binding was determined in HEK293A-rat mGlu5-low cells”. `N#Cc1cc(F)cc(C(=O)Nc2cccc(Cl)c2F)c1` [VU0366248, N-(3-chloro-2-fluorophenyl)-3-cyano-5-fluorobenzamide] gave a concentration for half-maximal inhibition (IC50) in assay [1] of 331 nM. In assay [2], this molecule showed a Ki of 115 nM. `N#Cc1cnc(Nc2nc3ccccc3o2)nc1-c1ccc(F)cc1` [VU0366058, 2-(1,3-benzoxazol-2-ylamino)-4-(4-fluorophenyl)pyrimidine-5-carbonitrile] showed an IC50 in assay [1] of 105 nM. Also, the affinity in assay [2] corresponds to a Ki of 55 nM. For `COc1cccc(C#Cc2ccc(C)cn2)c1` [M-5MPEP, 2-[2-(3-methoxyphenyl)ethynyl]-5-methylpyridine] the same measures were 295 nM and 74.1 nM. For `Fc1ccc2nc(CCC#Cc3ccccn3)cn2c1` [dipraglurant, 6-fluoro-2-[4-(2-pyridinyl)-3-butyn-1-yl]-Imidazo[1,2-a]pyridine] the same measures were 43.7 nM and 49 nM.

Broadly, the IC50 is the concentration that gives 50% inhibition. A higher IC50 goes with a need for much substance. One may read the Ki as a measure of affinity in units of concentration, obtained from inhibition or displacement. High values mean lower affinity, low ones higher affinity.
